Measured values from patent US9688743B2, “Optical biosensors” (Carnegie Mellon University, priority 2007, dated 2017).

How the values were obtained:
living NIH3T3 cells = assay: Entry of fluorogen controls into living cells; assay type: cell-based, mouse
[1] = comparison value; cited from earlier work
JAR200 cells = assay: Effect of fluorogens on yeast cell growth; assay type: cell-based; details: 500 nM fluorogen, 30° C.
Experimental: FIG. 17 is a graph depicting the effect of fluorogens on yeast cell growth. JAR200 cells are inoculated at ˜10^6 cells/ml into 35 ml SD+CAA medium in 125 ml baffled flasks and allowed to grow at 30° C. at 300 RPM for 2 hours prior to addition of fluorogens at the indicated concentrations. One ml samples are removed at indicated time points, and growth halted by addition of 75 μl of 300 mM NaN3 prior to reading absorbance. Doubling time of about 1.9 hrs is unchanged by most fluorogen treatments. For 500 nM MG-ester, the doubling time is about 2.8 hrs; and for 500 nM MG, the doubling time is over 24 hrs.

Molecule	doubling time (JAR200 cells)	also measured
2-[(1-(18-amino-4,9-diaza-12,15-dioxa-5,8-dioxo-octadecanyl)-4(111)-quinolinylidene)methyl-3-(3-sulfopropyl)benzothiazolinium]trifluoroacetate [TO1-2p]	–	entry into living cells (living NIH3T3 cells): did not enter living NIH3T3 cells
O=C(O)c1ccccc1-c1c2ccc(=O)c([As]3SCCS3)c-2oc2c([As]3SCCS3)c(O)ccc12 [F1AsH-EDT2]	–	fluorescence increase on binding cognate tetracysteine peptide [1]: 50,000 fold
CN(C)c1ccc(C(=C2C=CC(=[N+](C)C)C=C2)c2ccccc2)cc1 [MG, malachite green, reference compound]	over 24 hrs	–
CCOC(=O)CCCc1ccc([C+](c2ccc(N(C)C)cc2)c2ccc(N(C)C)cc2)cc1.[Cl-] [MG-ester, Methylium, bis[4-(dimethylamino)phenyl](4-(3-carboethoxypropyl)phenyl)-chloride]	about 2.8 hrs	–
